Experimental data taken from patent publication US20040067531A1, “Methods of modulating protein tyrosine kinase function with substituted indolinone compounds” (SUGEN, INC., priority 1997, published 2004).

Legend:
[1] = test system: FGF-induced BrdU incorporation; assay: FGF-induced BrdU incorporation assay; assay type: cell-based; details: read-out: FGF-Induced BrdU Incorp. IC50
Method: (§1) PDGF-, FGF-, and EGF-Induced BRDU Incorporation Assay
(§2) 1. Cells were seeded at 8000 cells/well in DMEM, 10% CS, 2 mM Gln in a 96 well plate. Cells were incubated overnight at 37° C. in 5% CO2.
(§3) 2. After 24 hours, the cells were washed with PBS, and then were serum starved in serum free medium (0% CS DMEM with 0.1% BSA) for 24 hours.
(§4) 3. On day 3, ligand (PDGF=3.8 nM, prepared in DMEM with 0.1% BSA) and test compounds were added to the cells simultaneously. The negative control wells received serum free DMEM with 0.1% BSA only; the positive control cells received the ligand (PDGF) but no test compound. Test compounds were prepared in serum free DMEM with ligand in a 96 well plate, and serially diluted for 7 test concentrations.
(§5) 4. After 20 hours of ligand activation, diluted BrdU labeling reagent (1:100 in DMEM, 0.1% BSA) was added and the cells were incubated with BrdU (final concentration=10 μM) for 1.5 hours.
(§6) 5. After incubation with labeling reagent, the medium was removed by decanting and tapping the inverted plate on a paper towel. FixDenat solution was added (50 μL/well) and the plates were incubated at room temperature for 45 minutes on a plate shaker.
(§7) 6. The FixDenat solution was thoroughly removed by decanting and tapping the inverted plate on a paper towel. Milk was added (5% dehydrated milk in PBS, 200 μL/well) as a blocking solution and the plate was incubated for 30 minutes at room temperature on a plate shaker.
(§8) 7. The blocking solution was removed by decanting and the wells were washed once with PBS. Anti-BrdU-POD solution (1:100 dilution in PBS, 1% BSA) was added (100 μL/well), and the plate was incubated for 90 minutes at room temperature on a plate shaker.
(§9) 8. The antibody conjugate was thoroughly removed by decanting and rinsing the wells 5 times with PBS, and the space was dried by inverting and tapping on a paper towel.
(§10) 9. TMB substrate solution was added (100 μL/well) and incubated for 20 minutes at room temperature on a plate shaker until color development was sufficient for photometric detection.
(§11) 10. The absorbance of the samples were measured at 410 nm (in “dual wavelength” mode with a filter reading at 490 nm, as a reference wavelength) on a Dynatech ELISA plate reader.
(§12) The IC50 values were measured for several of the compounds of the invention. These values are depicted in Table 10.

[2] = test system: EGF-induced BrdU incorporation; assay: EGF-induced BrdU incorporation assay; assay type: cell-based; details: read-out: EGF-Induced BrdU Incorp. IC50
Method: as §1, §2, §3, §4, §5, §6, §7, §8, §9, §10, §11, §12

[3] = biological target: T1, FLK-1 receptor (Mus musculus, UniProt P35918); assay: ELISA assay measuring the kinase activity of the FLK-1 receptor in cells engineered to express FLK-1; assay type: cell-based; details: NIH3T3 C7#3 FLK-1 expressing cells, VEGF stimulation, phosphotyrosine ELISA
T1 construct: expressed in transfected cells; host or cells: NIH3T3 C7#3
Method: An ELISA assay was conducted to measure the kinase activity of the FLK-1 receptor and more specifically, the inhibition or activation of TK activity on the FLK-1 receptor. Specifically, the following assay was conducted to measure kinase activity of the FLK-1 receptor in cells genetically engineered to express FLK-1.
(11) NIH3T3 C7#3 Cells (FLK-1 expressing cells);
The following protocol was used for conducting the assay:
1. Coat Corning 96-well elisa plates with 1.0 μg per well Cappel Anti-rabbit IgG antibody in 0.1 M Na2CO3 pH 9.6. Bring final volume to 150 μL per well. Coat plates overnight at 4° C. Plates can be kept up to two weeks when stored at 4° C.
2. Grow cells in Growth media (DMEM, supplemental with 2.0 mM L-Glutamine, 10% FBS) in suitable culture dishes until confluent at 37° C., 5% CO2.
3. Harvest cells by trypsinization and seed in Corning 25850 polystyrene 96-well roundbottom cell plates, 25.000 cells/well in 200 μL of growth media.
4. Grow cells at least one day at 37° C., 5% CO2.
5. Wash cells-with D-PBS 1×.
6. Add 200 μL/well of starvation media (DMEM, 2.0 mM 1-Glutamine, 0.1% FBS). Incubate overnight at 37° C., 5% CO2.
7. Dilute Compounds 1:20 in polypropylene 96 well plates using starvation media. Dilute dimethylsulfoxide 1:20 for use in control wells.
8. Remove starvation media from 96 well cell culture plates and add 162 μL of fresh starvation media to each well.
9. Add 18 μL of 1:20 diluted Compound dilution (from step 7) to each well plus the 1:20 dimethylsulfoxide dilution to the control wells (+/− VEGF), for a final dilution of 1:200 after cell stimulation. Final dimethylsulfoxide is 0.5%. Incubate the plate at 37° C., 5% CO2 for two hours.
10. Remove unbound antibody from ELISA plates by inverting plate to remove liquid. Wash 3 times with TBSW+0.5% ethanolamine, pH 7.0. Pat the plate on a paper towel to remove excess liquid and bubbles.
11. Block plates with TBSW+0.5% Ethanolamine, pH 7.0, 150 μL per well. Incubate plate thirty minutes while shaking on a microliter plate shaker.
12. Wash plate 3 times as described in step 10.
13. […] Bring final volume to 150 μL/well with TBSW+0.5% ethanolamine pH 7.0. Incubate plate for thirty minutes while shaking.
14. Add 180 μL starvation medium to the cells and stimulate cells with 20 μL/well 10.0 mM sodium ortho vanadate and 500 ng/mL VEGF (resulting in a final concentration of 1.0 mM sodium ortho vanadate and 50 ng/mL VEGF per well) for eight minutes at 37° C., 5% CO2. Negative control wells receive only starvation medium.
15. After eight minutes, media should be removed from the cells and washed one time with 200 μL/well PBS.
16. Lyse cells in 150 μL/well HNTG while shaking at room temperature for five minutes. HNTG formulation includes sodium ortho vanadate, sodium pyro phosphate and EDTA.
17. Wash ELISA plate three times as described in step 10.
18. Transfer cell lysates from the cell plate to ELISA plate and incubate while shaking for two hours. To transfer cell lysate pipette up and down while scrapping the wells.
19. Wash plate three times as described in step 10.
20. Incubate ELISA plate with 0.02 μg/well UB40 in TBSW+05% ethanolamine. Bring final volume to 150 μL/well. Incubate while shaking for 30 minutes.
21. Wash plate three times as described in step 10.
22. Incubate ELISA plate with 1:10,000 diluted EIA grade goat anti-mouse IgG conjugated horseradish peroxidase in TBSW+0.5% ethanolamine, pH 7.0. Bring final volume to 150 μL/well. Incubate while shaking for thirty minutes.
23. Wash plate as described in step 10.
24. Add 100 μL of ABTS/H2O2 solution to well. Incubate ten minutes while shaking.
25. Add 100 μL of 0.2 M HCl for 0.1 M HCl final to stop the color development reaction. Shake 1 minute at room temperature. Remove bubbles with slow stream of air and read the ELISA plate in an ELISA plate reader at 410 nm.
(§13) The IC50 values were measured for several of the compounds of the invention.

[4] = test system: 3T3 cell line genetically engineered to express human PDGF-R; assay: PDGF-induced BrdU incorporation assay; assay type: cell-based; details: NIH3T3; 3T3 cells expressing human PDGF-R, PDGF 3.8 nM; read-out: PDGF-Induced BrdU Incorp. IC50
Method: (1) PDGF: human PDGF B/B; 1276-956, Boehringer Mannheim, Germany
(8) 3T3 cell line genetically engineered to express human PDGF-R.
as §2, §3, §4, §5, §6, §7, §8, §9, §10, §11, §12

[5] = biological target: Myc-GyrB-FGFR fusion protein (Homo sapiens, UniProt P11362); assay: ELISA assay measuring the kinase activity of the FGF receptor (Myc-GyrB-FGFR from COS/FGFR cell lysate); assay type: biochemical; details: 7 μM ATP
Method: The following protocol describes the reagents and procedures used to analyze protein-tyrosine kinase activity of the Myc-GyrB-FGFR fusion protein.
Coat Corning 96 well ELISA plates with 1.0 μg/well of Rabbit αGyrB antibody in PBS for a total well volume of 100 μL. Store overnight at 4° C.
Remove unbound Rabbit antibody by inverting plate to remove liquid. Pat plate on a paper towel to remove excess liquid and bubbles
Add 100 μL of Blocking Buffer (TBB) to each well. Incubate while shaking on a microliter plate shaker at room temperature for 30 min.
Wash 4× with TBST. Pat plate on a paper towel to remove excess liquid and bubbles.
Add 15 μg COS/FGFR cell lysate Myc-GyrB-FGFR sources per well in HNTG for a final volume of 100 μL per well. Incubate while shaking on a micro-liter plate shaker at room temperature for 2 hours.
Wash 4× with TBST as described in step 4.
Add 80 μL of 1× kinase buffer per well.
Dilute compunds/extracts 1:10 (or as stated otherwise) in 1× kinase buffer +1% DMSO in a polypropylene 96 well plate.
At this point diluted Compounds/Extracts are added to the ELISA plate. […]

[6] = biological target: T2, EGFR protein (Homo sapiens, UniProt P00533); assay: ELISA assay measuring the kinase activity of the EGF receptor (EGFR captured from A431 cell lysate); assay type: biochemical
T2 construct: A431 cell lysate; endogenous in cells; host or cells: A431
Method: The following protocol describes the reagents and procedures used to analyze protein tyrosine kinase activity on the EGFR protein.
All of the following steps are conducted at room temperature unless it is specifically indicated. All ELISA plate washing is by rinsing 4× with TBST.
1. Coat Corning 96 well ELISA plates with 0.5 μg/well of SUMO1 in a volume of 100 μL PBS. Store overnight at 4° C.
2. Remove unbound SUMO1 by inverting plate to remove liquid. Wash plates with distilled water. Pat plate on a paper towel to remove excess liquid and bubbles
3. Add 150 μL of Blocking Buffer to each well. Incubate while shaking on a microliter plate shaker at room temperature for 30 min.
4. Wash 3× with deionized water, then once with TBST. Pat plate on a paper towel to remove excess liquid and bubbles.
5. Dilute lysate in PBS (7 μg of lysate/100 μL of PBS).
6. Add 100 μL of diluted lysate to each well. Shake at room temperature for 60 min.
7. Wash as described in step 4.
8. Add 120 μL TBS to ELISA plate containing captured EGFR.
9. Dilute drugs/extracts 1:10 (unless specified otherwise) in TBS in 96-well polypropylene plates.
10. Add 13.5 μL diluted drugs/extracts to ELISA plate.
11. Incubate for 30 minutes while shaking at room temperture.
12. […] Incubate while shaking on a micro-liter plate shaker at room temperature for 5 min.
13. Stop Kinase reaction with the addition of 16.5 μL of 200 mM EDTA pH 8.0 to all wells.
14. Wash 4× with deionized water and twice with TBST.
15. Add 100 μL per well of anti-phosphotyrosine (1:3000 dilution in TBST). Incubate while shaking on a micro-liter plate shaker 30-45 minutes at room temperature while shaking.
16. Wash as described in step 4.
17. Add 100 μL per well of biosource Goat anti-rabbit IgG peroxidase conjugate (1:2000 dilution in TBST). Incubate 30 min. at room temerature while shaking.
18. Wash as described in step 4.
19. Add 100 μL of ABTS/H2O2 solution to each well.
20. Incubate 5 to 15 minutes while shaking. Remove any bubbles.
21. If necessary stop reaction with the addition of 10 μL of 0.2 M HCl/well.
22. Read assay on Dynatech MR7000 ELISA Plate Reader.
as §13

T1 sequence (P35918 20-1345): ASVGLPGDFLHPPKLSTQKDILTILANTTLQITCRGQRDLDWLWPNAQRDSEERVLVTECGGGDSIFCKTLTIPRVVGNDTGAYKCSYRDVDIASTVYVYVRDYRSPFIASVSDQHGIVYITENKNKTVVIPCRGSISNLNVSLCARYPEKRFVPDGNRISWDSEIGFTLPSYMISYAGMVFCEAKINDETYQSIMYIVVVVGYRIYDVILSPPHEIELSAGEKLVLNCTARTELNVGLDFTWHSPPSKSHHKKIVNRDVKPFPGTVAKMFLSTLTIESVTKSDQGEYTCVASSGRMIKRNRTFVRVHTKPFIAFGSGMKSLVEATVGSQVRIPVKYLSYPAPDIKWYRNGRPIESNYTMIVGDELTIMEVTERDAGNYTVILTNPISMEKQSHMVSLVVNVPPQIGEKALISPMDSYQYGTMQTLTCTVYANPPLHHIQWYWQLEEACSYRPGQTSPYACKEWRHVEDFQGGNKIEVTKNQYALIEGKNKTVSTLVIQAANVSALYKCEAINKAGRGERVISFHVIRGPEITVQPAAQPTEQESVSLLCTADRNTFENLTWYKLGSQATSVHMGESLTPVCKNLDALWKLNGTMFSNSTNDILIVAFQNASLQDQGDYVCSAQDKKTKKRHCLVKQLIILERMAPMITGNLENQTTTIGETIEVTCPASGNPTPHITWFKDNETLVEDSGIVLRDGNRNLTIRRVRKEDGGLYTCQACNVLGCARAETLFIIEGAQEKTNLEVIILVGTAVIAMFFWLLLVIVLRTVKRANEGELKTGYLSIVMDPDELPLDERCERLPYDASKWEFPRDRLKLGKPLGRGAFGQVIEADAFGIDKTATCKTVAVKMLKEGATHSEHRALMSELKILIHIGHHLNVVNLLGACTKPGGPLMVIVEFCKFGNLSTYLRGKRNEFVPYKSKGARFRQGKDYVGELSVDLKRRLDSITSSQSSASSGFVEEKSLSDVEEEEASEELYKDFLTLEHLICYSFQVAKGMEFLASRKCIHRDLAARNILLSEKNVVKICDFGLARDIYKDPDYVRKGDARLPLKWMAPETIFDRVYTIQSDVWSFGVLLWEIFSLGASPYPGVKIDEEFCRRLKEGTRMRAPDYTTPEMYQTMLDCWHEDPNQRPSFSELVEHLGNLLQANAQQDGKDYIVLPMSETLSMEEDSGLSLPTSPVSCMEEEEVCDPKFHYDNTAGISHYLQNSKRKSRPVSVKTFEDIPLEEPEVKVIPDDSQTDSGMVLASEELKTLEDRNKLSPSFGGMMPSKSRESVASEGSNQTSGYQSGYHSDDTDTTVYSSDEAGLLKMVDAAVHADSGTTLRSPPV
T2 sequence (P00533 25-1210): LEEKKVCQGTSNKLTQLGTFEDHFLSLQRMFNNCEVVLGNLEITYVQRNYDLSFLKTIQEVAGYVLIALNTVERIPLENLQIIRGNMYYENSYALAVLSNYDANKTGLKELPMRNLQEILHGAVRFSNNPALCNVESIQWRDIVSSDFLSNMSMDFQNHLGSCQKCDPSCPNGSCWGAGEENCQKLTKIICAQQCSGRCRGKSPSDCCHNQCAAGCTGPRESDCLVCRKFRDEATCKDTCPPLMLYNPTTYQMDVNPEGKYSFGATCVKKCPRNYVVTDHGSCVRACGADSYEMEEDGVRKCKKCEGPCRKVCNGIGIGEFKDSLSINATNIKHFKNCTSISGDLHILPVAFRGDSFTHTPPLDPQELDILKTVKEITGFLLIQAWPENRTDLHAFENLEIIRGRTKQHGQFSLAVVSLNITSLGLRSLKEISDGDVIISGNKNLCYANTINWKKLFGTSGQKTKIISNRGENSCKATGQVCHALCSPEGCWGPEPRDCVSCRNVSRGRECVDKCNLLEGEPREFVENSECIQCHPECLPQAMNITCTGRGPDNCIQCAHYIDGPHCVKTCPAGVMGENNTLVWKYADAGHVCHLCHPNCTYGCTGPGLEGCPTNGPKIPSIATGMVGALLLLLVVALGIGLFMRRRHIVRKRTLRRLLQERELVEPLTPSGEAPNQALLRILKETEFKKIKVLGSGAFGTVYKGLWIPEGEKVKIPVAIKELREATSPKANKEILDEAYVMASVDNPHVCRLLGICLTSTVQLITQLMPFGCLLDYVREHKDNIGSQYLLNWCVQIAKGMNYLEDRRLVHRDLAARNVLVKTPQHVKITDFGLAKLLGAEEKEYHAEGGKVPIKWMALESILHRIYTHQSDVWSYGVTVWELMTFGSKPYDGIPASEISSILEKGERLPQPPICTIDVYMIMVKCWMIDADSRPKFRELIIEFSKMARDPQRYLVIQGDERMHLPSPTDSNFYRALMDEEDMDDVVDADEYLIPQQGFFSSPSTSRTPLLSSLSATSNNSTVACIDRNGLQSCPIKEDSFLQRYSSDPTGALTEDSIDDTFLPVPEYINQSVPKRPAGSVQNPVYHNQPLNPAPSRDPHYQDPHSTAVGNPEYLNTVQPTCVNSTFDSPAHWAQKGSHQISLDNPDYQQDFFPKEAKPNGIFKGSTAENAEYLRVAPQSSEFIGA
Myc-GyrB-FGFR fusion protein, sequence (P11362 398-822): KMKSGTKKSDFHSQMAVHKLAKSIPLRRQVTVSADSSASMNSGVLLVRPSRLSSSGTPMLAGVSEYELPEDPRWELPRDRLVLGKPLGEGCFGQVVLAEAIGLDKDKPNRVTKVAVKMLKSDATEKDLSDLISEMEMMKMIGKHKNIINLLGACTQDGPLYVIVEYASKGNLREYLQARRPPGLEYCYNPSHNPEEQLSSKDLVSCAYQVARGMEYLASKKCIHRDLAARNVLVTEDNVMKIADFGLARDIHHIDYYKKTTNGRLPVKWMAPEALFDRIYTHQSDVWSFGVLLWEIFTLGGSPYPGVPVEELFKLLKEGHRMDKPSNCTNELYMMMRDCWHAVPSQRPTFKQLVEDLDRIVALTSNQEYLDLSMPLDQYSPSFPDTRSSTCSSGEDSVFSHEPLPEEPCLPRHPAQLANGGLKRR

SMILES: O=C(O)CCc1c(C=C2C(=O)Nc3cc(Cl)ccc32)[nH]c2c1CCCC2 [IN-006, 3-[2-(6-Chloro-2-oxo-1,2-dihydro-indol-3-ylidenemethyl)-4,5,6,7-tetrahydro-1H-indol-3-yl]-propionic acid]
- IC50 [1]: 30.2 µM
- IC50 [2]: 63.6 µM
- IC50 [3]: 0.031 µM
- IC50 [4]: 3.7 µM

SMILES: O=C(O)CCc1c(/C=C2\C(=O)Nc3ncccc32)[nH]c2c1CCCC2 [IN-014, 3-[2-(2-Oxo-1,2-dihydro-pyrrolo[2,3-b]pyridin-3-ylidenemethyl)-4,5,6,7-tetrahydro-1H-indol-3-yl]-propionic acid]
- IC50 [3]: 0.14 µM

SMILES: COc1cccc(-c2ccc3c(c2)NC(=O)C3=Cc2[nH]c3c(c2CCC(=O)O)CCCC3)c1 [IN-015, 3-{2-[6-(3-Methoxy-phenyl)-2-oxo-1,2-dihydro-indol-3-ylidenemethyl]-4,5,6,7-tetrahydro-1H-indol-3-yl}-propionic acid]
- IC50 [3]: < 0.78 µM

SMILES: O=C(O)CCc1c(C=C2C(=O)Nc3cc(-c4ccccc4)ccc32)[nH]c2c1CCCC2 [IN-017, 3-[2-(2-Oxo-6-phenyl-1,2-dihydro-indol-3-ylidenemethyl)-4,5,6,7-tetrahydro-1H-indol-3-yl]-propionic acid]
- IC50 [3]: < 0.78 µM

SMILES: COc1ccccc1-c1ccc2c(c1)NC(=O)C2=Cc1[nH]c2c(c1CCC(=O)O)CCCC2 [IN-018, 3-{2-[6-(2-Methoxy-phenyl)-2-oxo-1,2-dihydro-indol-3-ylidenemethyl]-4,5,6,7-tetrahydro-1H-indol-3-yl}-propionic acid]
- IC50 [3]: 2.7 µM

SMILES: CC(C)NS(=O)(=O)c1ccc2c(c1)C(=Cc1[nH]c3c(c1CCC(=O)O)CCCC3)C(=O)N2 [IN-019, 3-[2-(5-Isopropylaminosulfonyl-2-oxo-1,2-dihydro-indol-3-ylidenemethyl)-4,5,6 7-tetrahydro-1H-indol-3-yl]-propionic acid]
- IC50 [3]: < 0.78 µM

SMILES: O=C(O)CCc1ccccc1/C=C1/C(=O)Nc2ccccc21 [IN-025, 3-[2-(2-Oxo-1,2-dihydro-indol-3-ylidenemethyl)-phenyl]-propionic acid]
- IC50 [5]: 30.2 µM

SMILES: Cc1ccc2c(c1)C(=Cc1[nH]cc(C)c1CCC(=O)O)C(=O)N2 [IN-032, 3-[2-(5-Methyl-2-oxo-1,2-dihydro-indol-3-ylidenemethyl)-4-methyl-1H-pyrrol-3-yl]-propionic acid]
- IC50 [1]: 30 µM
- IC50 [2]: > 50 µM
- IC50 [4]: 11 µM

SMILES: COc1ccc2c(c1)C(=Cc1[nH]cc(C)c1CCC(=O)O)C(=O)N2 [IN-033, 3-[2-(5-Methoxy-2-oxo-1,2-dihydro-indol-3-ylidenemethyl)-4-methyl-1H-pyrrol-3-yl]-propionic acid]
- IC50 [1]: 35 µM
- IC50 [6]: > 100 µM
- IC50 [2]: > 50 µM
- IC50 [4]: > 50 µM
